Laboratory results taken from patent US11607432B2, “Probiotic compositions containing clostridiales for inhibiting inflammation” (Evelo Biosciences, Inc., priority 2014, dated 2023).
“Also recorded” adds a separate entry of the source. Where two headings read alike, the source gives them in different places.

How the values were obtained:
[1] = cited from earlier work
[2] = test system: human peripheral blood mononuclear cells (PBMCs); experiment: Cytokine release by human PBMCs incubated with commensal bacteria alone or in combination with E. faecalis (Luminex); type: cell-based; conditions: for ability to reduce/counteract the induction of pro-inflammatory cytokines by EPV 8 (incl. IL-6, MCP-1, IL-12p70, IFNγ): combination with EPV 8; for anti-inflammatory cytokine profile for a Th-1-driven condition such as GVHD: overall assessment, FIG. 11
gut microbiome = experiment: Normal human volunteer study of D-xylose: changes in the gut microbiome (stool 16S sequencing); type: in vivo; conditions: for alpha diversity of the gut microbiome: over time on study
[3] = Normal human volunteer study of D-xylose: serum CRP, serum cytokines and T-cell markers; type: in vivo
Description: Blood was collected at pre-specified pre- and post-ingestion time points to evaluate C-reactive protein (CRP), serum cytokines (tumor necrosis factor alpha [TNF-α], interleukin [IL]-2, IL-6, interferon gamma [IFN-γ], and IL-10), and T-cell markers CD3, CD4, CD8, CD25, and FOXP3. Plasma was also stored and may be tested for biomarkers and/or metabolic markers for up to 7 years.
Summary statistics (n, mean, standard deviation, median, minimum, and maximum) were presented for serum concentrations of CRP, flow cytometry T-cell markers (CD3, CD4, CD8, CD25, and FOXP3), and cytokines (TNF-α, IL-2, IL-6, IFN-γ, and IL-10) as per their nominal time points.

intestinal permeability = type: in vivo, mice
[4] = human, in vivo
Experimental: D-xylose is a carbon source generally preferred by anaerobic bacteria. […] A parallel, double-blind, 5 cohort escalation food safety study was conducted to examine D-xylose in normal human volunteers. The study was a double-blind, single-center, parallel group study designed to evaluate the tolerability and potential microbiome changes induced by ingestion of D-xylose at 5 different amounts in healthy, adult volunteers enrolled at 1 study center in the United States (US).
Subjects were screened for eligibility within 21 days prior to the first planned ingestion of study sweetener on Day 1 (Baseline). […]
Subjects returned to the study center weekly on Days 8, 15, 22, and 28 for ingestion, tolerability, and compliance evaluations. Safety was evaluated on a continual basis through adverse events (AE) monitoring, clinical laboratory measurements, vital sign monitoring, physical examinations, electrocardiograms (ECGs), telephone follow-up, and electronic subject ingestion diaries. Stool was collected pre-ingestion and at pre-specified time points, and post-ingestion samples were evaluated for changes in the gut microbiome compared with Baseline for all subjects. […]
Safety was evaluated on a continual basis through AE monitoring, clinical laboratory measurements, vital sign monitoring, physical examinations, ECGs, telephone follow-up, and electronic subject ingestion diaries. […]

human PBMCs = experiment: Flow cytometry of T cell populations in human PBMCs cultured with commensal bacteria; type: cell-based; conditions: compared to PBMCs alone (control); percent of CD3ε+CD4+ cells
Experimental: In order to determine whether exposure to commensal bacteria may polarize T cells toward a particular phenotype, flow cytometry analysis was performed on human PBMCs cultured with various commensal bacteria as described above. The cells recovered from culture were washed in phosphate-buffered saline and stained with a cocktail of fluorescently labeled antibodies against specific cell surface protein markers to allow for the detection of Th1 cells (CXCR3^+CCR6^−), Th2 cells (CXCR3^−CCR6^−), Th17 cells (CXCR3^+CCR6^+) and Tregs (CD25^+CD127^lo). Negative control wells contained PBMCs in culture medium alone and positive control wells contained PBMCs+LPS (100 ng/ml) as a known immune stimulus. The commensal bacteria examined inluded: Epv 1: R. gnavus; Epv 3: B. luti; Epv 2: E. rectale; Epv 5: B. wexlerae; Epv. 8: E. faecalis; Epv 20: B. obeum, ATCC 29174; Epv 21: B. product, ATCC 27340; Epv 24: B. hansenii, ATCC 27752. […] For example, the optimal T cell profile to address pro-inflammatory disorders such as GVHD would consist of ↑Treg, ↓Th17, ↓ or unchanged Th1, and ↑Th2. This phenotype was induced by many of the bacteria tested.

vaginal microbiome = test system: vaginal microbiome; set-up: species or system C57Bl/6 female mice; conditions: mouse, in vivo, po
Description: (§1) The trillions of organisms forming the microbiome function as an organ system interconnected throughout the body. The possibility that modification of the microbiome in a given physical location may influence the microbiome at other sites in the body (distal augmentation) was investigated. Seven week old C57Bl/6 female mice were acclimatized for 7 days prior to the start of the study by daily handling and shuffling between cages. All mice were housed at three mice per cage in individually vented cages (Thoren, Hazleton, Pa.). At day 0, baseline fresh fecal pellets, and vaginal lavages with 100 μL of sterile double-distilled water were collected and immediately frozen at −80° C. for microbiome analysis. […] Water alone is not expected to influence the microbiome and acted as a negative control. […] The impact of oral vancomycin is therefore expected to be limited to the gastrointestinal tract such that microbiome changes elsewhere in the body (e.g. vagina) would be attributable to distal augmentation. […]
(§2) Isolation and sequencing of microbial DNA from the stool and vaginal samples was performed by DNA Genotek (Ottawa, ON, Canada). The V3-V4 region of the 16S ribosomal subunit was amplified with custom PCR primers and sequenced on an Illumina MiSeq to a minimum acceptable read depth of 25,000 sequences per sample. […]

microbiome of the gut = test system: microbiome of the gut; set-up: species or system C57Bl/6 female mice; conditions: mouse, in vivo
Description: as §1, §2

[5] = in vivo; cited from earlier work
[6] = Table 1, NIAID priority pathogen category, OP or N
[7] = bacterium alone, 24, 48 and 72 hours

## Clostridium glycolicum
[1]; [6]
  Pathogen Status: N

## Eubacterium rectale [EPV 2]
[2]; [7]
  induction of monocyte, macrophage and neutrophil-related inflammatory cytokines (MCP-1, MIP1β, MIP1α, RANTES, IL-1α, IL1β, IFN-α2, IL-8): least inflammatory
[2]; combination with E. faecalis
  countering the effect of E. faecalis (Epv 8) on monocyte, macrophage and neutrophil-related inflammatory cytokines: most effective

## Bacteroides fragilis
[1]; Table 1, OTU list, NIAID priority pathogen category, OP or N
  Pathogen Status: N

## O=C[C@H](O)[C@@H](O)[C@H](O)CO [D-xylose]
Gut microbiome; normal individuals and normal mice
  changes in the gut microbiome, overall: subtle changes in the gut microbiome
Gut microbiome; regardless of ingestion amount
  community composition of the gut microbiome over time: no significant changes in community composition
  alpha diversity of the gut microbiome: no apparent significant impact
Gut microbiome; regardless of ingestion amount, listed as xylose
  alpha diversity of the gut microbiome: no major shifts in the microbiome alpha diversity
Gut microbiome; xylose TID at 1, 2, 8, 12.5 or 15 grams, FIG. 31
  Chao diversity index (community richness) over time: overall decrease
[3]; 2 g and 15 g D-xylose cohorts, FIG. 30
  levels of serum interferon gamma over time: trend for reduced levels
[3]; any ingestion amount
  total T-cells or any T-cell subsets over time: No consistent or clinically meaningful changes over time
[3]; human, in vivo
  subjects with normal serum CRP at Baseline with at least 1 post-ingestion CRP value >2.9 mg/L: 8.3%
[3]; most data points below the limit of quantitation, any ingestion amount
  serum cytokines (TNF-α, IL-2, IL-6, IFN-γ, IL-10) over time: did not indicate any consistent or clinically meaningful changes over time
Intestinal permeability; mouse, in vivo
  basal levels of serum endotoxin: reduced these basal levels over time; also recorded: reduces basal levels of serum endotoxin
  effect of xylose on the increase in serum endotoxin level caused by cipro: appeared to counteract the increase in serum endotoxin level; also recorded: counteracts the endotoxin increase
  effect of xylose on the increase in serum endotoxin level caused by enro: but not enro
[4]
  SAEs, severe AEs, subject deaths: No SAEs, severe AEs, or subject deaths were reported

## Eubacterium rectale [EPV 35]
[2]
  low induction of pro-inflammatory cytokines and/or positive induction of anti-inflammatory cytokines, and ability to counteract the inflammatory activity of E. faecalis (candidate criteria): meeting these criteria

## Blautia luti (BlnIX) [EPV 114]
[2]
  low induction of pro-inflammatory cytokines and/or positive induction of anti-inflammatory cytokines, and ability to counteract the inflammatory activity of E. faecalis (candidate criteria): meeting these criteria

## Clostridium paraputrificum
[1]; [6]
  Pathogen Status: N

## Blautia obeum [EPV 78]
[2]
  low induction of pro-inflammatory cytokines and/or positive induction of anti-inflammatory cytokines, and ability to counteract the inflammatory activity of E. faecalis (candidate criteria): meeting these criteria

## Ruminococcus gnavus [EPV 1]
[2]; bacterium on its own, 24, 48 and 72 hours
  eliciting Th2 cytokines (IL-13, IL-4, IL-5): most active
[2]; in the presence of E. faecalis, 24, 48 and 72 hours
  eliciting Th2 cytokines (IL-13, IL-4, IL-5): most active

## Clostridium tertium
[1]; [6]
  Pathogen Status: N

## Blautia wexlerae [EPV 5]
[2]; 24, 48 and 72 hours
  induction of IL-10: most potent
[2]
  ability to reduce/counteract the induction of pro-inflammatory cytokines by EPV 8 (incl. IL-6, MCP-1, IL-12p70, IFNγ): little ability to counteract
  anti-inflammatory cytokine profile for a Th-1-driven condition such as GVHD: suboptimal anti-inflammatory profile

## Enterococcus faecalis [EPV 8, reference compound]
Human PBMCs
  proportion of T cells with a regulatory phenotype (Tregs, CD25+CD127lo): little or no increase
[1]; OTU of Table 1
  Pathogen Status: N
[2]
  induction of Th1-related cytokines (IFN-γ, IL-12p70, IL-6, IL-2, TNFα): induced high levels

## CN[C@H](CC(C)C)C(=O)N[C@H]1C(=O)N[C@@H](CC(N)=O)C(=O)N[C@H]2C(=O)N[C@H]3C(=O)N[C@H](C(=O)N[C@H](C(=O)O)c4cc(O)cc(O)c4-c4cc3ccc4O)[C@H](O)c3ccc(c(Cl)c3)Oc3cc2cc(c3O[C@@H]2O[C@H](CO)[C@@H](O)[C@H](O)[C@H]2O[C@H]2C[C@](C)(N)[C@H](O)[C@H](C)O2)Oc2ccc(cc2Cl)[C@H]1O [Vancomycin, vancomycin]
Vaginal microbiome
  day 0 to day 6 pattern in vaginal samples (PCA): overall difference between the PBS and oral vancomycin groups
Microbiome of the gut
  impact on the microbiome of the gut (PCA at the family level, fecal samples day 0 to day 6): strong impact
[5]
  absorption from the gut after oral administration: poorly absorbed from the gut

## Blautia producta ATCC 27340 [EPV 21]
Human PBMCs
  proportion of T cells with a regulatory phenotype (Tregs, CD25+CD127lo): greatest impact

## Clostridium sordellii
[1]; [6]
  Pathogen Status: N

## Blautia Hansenii ATCC27752 [EPV 24]
Human PBMCs
  proportion of T cells with a regulatory phenotype (Tregs, CD25+CD127lo): greatest impact

## CCN1CCN(c2cc3c(cc2F)c(=O)c(C(=O)O)cn3C2CC2)CC1 [enro, enrofloxacin, reference compound]
Intestinal permeability; 0.25 g/L in drinking water day −7 to day −2, measured 2 days after a 5 day course (day 0)
  serum endotoxin levels after antibiotic treatment: increase in serum endotoxin levels
Intestinal permeability; by day 14
  serum endotoxin levels over time after antibiotic treatment: return to baseline by day 14

## Blautia luti [EPV 3]
[2]; bacterium alone
  intrinsic inflammatory activity (induction of pro-inflammatory cytokines) compared to EPV 8: relatively low intrinsic inflammatory activity
[2]; [7]
  induction of Th1-related cytokines (IFN-γ, IL-12p70, IL-6, IL-2, TNFα): minimal induction
  induction of monocyte, macrophage and neutrophil-related inflammatory cytokines (MCP-1, MIP1β, MIP1α, RANTES, IL-1α, IL1β, IFN-α2, IL-8): least inflammatory
[2]; combination with E. faecalis
  countering the effect of E. faecalis (Epv 8) on monocyte, macrophage and neutrophil-related inflammatory cytokines: most effective
[2]; combination with E. faecalis, 24, 48 and 72 hours
  counteracting induction of Th1-related cytokines by E. faecalis (Epv 8): most effective
[2]
  ability to reduce/counteract the induction of pro-inflammatory cytokines by EPV 8 (incl. IL-6, MCP-1, IL-12p70, IFNγ): able to reduce the induction of pro-inflammatory cytokines
  anti-inflammatory cytokine profile for a Th-1-driven condition such as GVHD: significantly desirable anti-inflammatory profile; also recorded: desirable anti-inflammatory cytokine profile
